Laboratory results taken from patent publication EP2181589A1, “Neurotoxic sterol glycosides” (Shaw, Christopher Ariel, priority 2008, dated 2010).
Marks after values point to notes of the source that are not given here.

Assays:
Type in all cases: in vivo, CD-1 mice
[1] = test system: Cholinergic motor neurons in the spinal cord; assay: Choline acetyl transferase immunofluorescence; conditions: SG-fed vs control; for Cholinergic neurons: ventral horn of lumbar spinal cord
Protocol: (§1) The synthetic SG was mixed with finely ground Purina Chow mouse pellets (Mouse Diet™, Purina) to create the experimental pellets with a SG content of 1000 µg per pellet. Dry materials were blended with a sterile silicon spatula. For every 5 g of standard feed, 2.5 mL of doubly-distilled water (dd)H2O was added and the dough was kneaded and round up into pellets. A single sterol glucoside containing pellet was placed in the feeding tray each morning before the addition of regular mouse chow (ad libitum). All experimental pellets were entirely consumed by the mice each day. Control mice were fed standard mouse chow pellets of identical weight with no additives. SG feeding was conducted daily for 15 weeks and mice were behaviorally monitored until sacrifice at 35 weeks (time point 1) or 52 weeks (time point 2).
Tissue-mounted slides were processed for fluorescence microscopy as follows: Sections were rinsed in coplin jars for 45 minutes at room temperature (RT) in three changes of PBS. Sections were then incubated at RT for 30 minutes in a blocking permeabilization solution made of 5% normal goat serum (NGS), 5% normal rabbit serum (NRS) or 5% BlokHen II (Aves Labs, Inc., Tigard, OR), 0.05% Triton X-100 and PBS. Subsequently, the blocking solution was tipped off and the slides were rinsed in PBS for 2 minutes. […]

Heat shock protein-70 = Heat shock protein-70 immunofluorescence; conditions: for Anti-Hsp-70 (VHLsc) / Anti-Hsp-70 (VHTsc): SG-fed vs control; for Anti-Hsp-70 (VHLsc): ventral horn lumbar spinal cord; for Anti-Hsp-70 (VHTsc): ventral horn thoracic spinal cord
Protocol: as §1
Tissue-mounted slides were processed for fluorescence microscopy as follows: Sections were rinsed in coplin jars for 45 minutes at room temperature (RT) in three changes of PBS. Sections were then incubated at RT for 30 minutes in a blocking permeabilization solution made of 5% normal goat serum (NGS), 5% normal rabbit serum (NRS) or 5% BlokHen II (Aves Labs, Inc., Tigard, OR), 0.05% Triton X-100 and PBS. Subsequently, the blocking solution was tipped off and the slides were rinsed in PBS for 2 minutes. Sections were then incubated overnight in a humidified chamber at 4°C with a PBS buffered solution that contained 1% NGS or 1% NRS, 1% bovine serum albumin (BSA) and one of the following primary antibodies: (a) rabbit anti-human/mouse ATF-3 (H-90) IgG (polyclonal, 1:500; Santa Cruz Biotechnology, Inc., Santa Cruz, CA), (b) anti-activated caspase-3 IgG (monoclonal, 1:250; Chemicon International, Temecula, CA) (see FIGURE 9), (c) goat antihuman/ mouse choline acetyl transferase (ChAT) IgG (polyclonal, 1:100; Chemicon International, Temecula, CA) (see FIGURE 6), (d) rabbit anti-mouse glial fibrillary acidic protein IgG (polyclonal, 1:250; GeneTex Inc., San Antonio, TX) (see FIGURE 7), (e) rabbit antihuman/ mouse ionized calcium binding adaptor molecule 1 (IBA-1) IgG (polyclonal, 1:500; Wako Pure Chemical Industries, Ltd, Richmond, VA), (f) mouse anti-human/mouse clone AT8 PHF-1 Tau (monoclonal, 1:200; Pierce Biotechnology Inc., Rockford, IL), (g) rabbit anti-human/mouse TAR DNA-binding protein 43 (TDP43) (1:100; ProteinTech Group Inc., Chicago, IL) (See FIGURE 14), (h) chicken anti-human/mouse β-tubulin 3 (TuJ1 antigen) (polyclonal, 1:100, Aves Labs, Inc., Tigard, OR), (i) rabbit anti-mouse tyrosine hydroxylase (polyclonal, 1:500, Chemicon International, Temecula, CA or polyclonal 1:1000, Affinity BioReagents, Golden, CO) (FIGURE 10), (j) rabbit anti human/mouse anti-pJunser73 IgG (polyclonal, 1:200; Chemicon International, Temecula, CA), (k) rabbit anti human/mouse anti-HSP-70 IgG (polyclonal, 1:200; Chemicon International, Temecula, CA), or (1) rabbit anti human/mouse anti-HSP-25 IgG (polyclonal, 1:100; Chemicon International, Temecula, CA). In each experiment, additional slides were incubated with the primary antibody and the secondary antibody omitted or with secondary antibody and primary antibody omitted to test for nonspecific staining. Where appropriate, positive control slides (Alzheimer's disease patient entorhinal cortex, obtained from Drs. Claudia Schwab and Patrick McGeer of the Kinsmen Laboratory, University of British Columbia, Vancouver, BC, Canada) were also processed as above for comparison. Following overnight incubation with the primary antibody, slides were rinsed for 45 minutes at RT in three changes of PBS. […]

Cytochrome c oxidase = Cytochrome c oxidase histochemistry; conditions: for Cytochrome c oxidase activity: SG-fed vs control
Protocol: as §1
Tissue-mounted slides were processed for […] in a manner adapted from Seligman et al. (1968) and Wong-Riley (1979). Sections were rinsed in coplin jars for 15 minutes at RT in three changes of PBS and subsequently incubated with a media comprised of 50 mg of 3,3'-diaminobenzidine tetrahydrochloride (DAB) (DAB substrate system, Vector Laboratories, Burlingame, CA, USA), 90 mL 0.1M phosphate buffer, 20 mg cytochrome c (type III, Sigma-Aldrich Co., Oakville, ON, Canada), and 4 g of sucrose in a dish submerged in a water bath maintained at 37°C in the dark for 2 hours. The sections were monitored closely for the brown reaction product to appear within the tissue. Once a medium-brown color was achieved, slides were removed from the incubation media and rinsed for 15 minutes in three changes of PBS to stop the reaction. This was followed with a 2 minutes rinse in distilled water to remove residue from the slides. The slides were dried under a fume hood and cover-slipped with Entellen (Merck, Darmstadt, Germany).
The numbers of immunoreactive somata or inclusions were counted across the ventral horn of the spinal cord, across brain hemispheres, or per dorsal or ventral root with the 40x objective lens in a 600 µm / 600 µm area within region perimeters defined by a mouse brain atlas (2001). For each animal, eight cross-sections per spinal cord or brain region were studied. […] For quantification of the level of mitochondrial activity (cytochrome c oxidase labelling) in the lumbar spinal cord or tyrosine hydroxylase immunoreactivity in the substantia nigra pars compacta and striatal sections, images captured using the Motic B5 Professional Series 3.0 microscope (Motic Instruments Inc., Richmond, ON) and analyzed using Motic B5 Professional, Motic Images Advanced 3.0 (Motic Instruments Inc., Richmond, ON) were scanned into a TIFF format file and analysed using the NIH Image J 1.37 software to measure density levels of antibody labelling. […]

[2] = SG-fed group over time, 35 to 52 wk

CCC(C=CC(C)C1CCC2C3CC=C4CC(OC5OC(CO)C(O)C(O)C5O)CCC4(C)C3CCC12C)C(C)C (centres unmarked) [SG]
fewer cholinergic neurons ([1]; 35 weeks): 18% | fewer cholinergic neurons ([1]; 52 weeks): 32% | Cholinergic neurons ([1]; time-point 1, 35 wk): Cholinergic neurons (-18%) | Cholinergic neurons ([1]; time-point 2, 52 wk): Cholinergic neurons (-32%) | Anti-Hsp-70 Lsc (Heat shock protein-70; [2]): Anti-Hsp-70 Lsc (SG-fed group over time) (ns, p=0.1223) | Anti-Hsp-70 Tsc (Heat shock protein-70; [2]): Anti-Hsp-70 Tsc (SG-fed group over time) (ns, p=0.8319) | Anti-Hsp-70 (VHLsc) (Heat shock protein-70; time-point 1, 35 wk): Anti-Hsp-70: +1036%*** | Anti-Hsp-70 (VHTsc) (Heat shock protein-70; time-point 1, 35 wk): Anti-Hsp-70: (ns, p=0.9697) | Anti-Hsp-70 (VHLsc) (Heat shock protein-70; time-point 2, 52 wk): Anti-Hsp-70: +425%* (VHLsc) | Anti-Hsp-70 (VHTsc) (Heat shock protein-70; time-point 2, 52 wk): Anti-Hsp-70: (ns, p=0.2793) | Cytochrome c oxidase Activity, Optical density (Cytochrome c oxidase; [2]): Optical density (SG-fed group over time): -36%** | Cytochrome c oxidase activity (Cytochrome c oxidase; 35 or 52 weeks): no significant differences | Cytochrome c oxidase activity (Cytochrome c oxidase; time-point 1, 35 wk): (ns) | Cytochrome c oxidase activity (Cytochrome c oxidase; time-point 2, 52 wk): (ns)
